Like-named read-outs stand apart in the source and are kept apart here.
Experiments:
Assay in all cases: biochemical
Design in all cases: Eurofins KinaseProfiler full panel at Km ATP, residual kinase activity (%) relative to DMSO
Wee1(h) = Wee1(h) (Homo sapiens, UniProt P30291)
In short: (§1)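 Two 10 µM single-concentration screens were run: a competition-binding screen, in which DNA-tagged kinase bound to immobilized ligands was quantified by qPCR, and a radiometric activity panel at Km ATP. Each is expressed as residual kinase activity (%).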

PKBγ(h) = target: T1, PKBγ(h) (Homo sapiens, UniProt Q9Y243)
T1 construct: gene AKT3
T1 sequence (Q9Y243 whole entry): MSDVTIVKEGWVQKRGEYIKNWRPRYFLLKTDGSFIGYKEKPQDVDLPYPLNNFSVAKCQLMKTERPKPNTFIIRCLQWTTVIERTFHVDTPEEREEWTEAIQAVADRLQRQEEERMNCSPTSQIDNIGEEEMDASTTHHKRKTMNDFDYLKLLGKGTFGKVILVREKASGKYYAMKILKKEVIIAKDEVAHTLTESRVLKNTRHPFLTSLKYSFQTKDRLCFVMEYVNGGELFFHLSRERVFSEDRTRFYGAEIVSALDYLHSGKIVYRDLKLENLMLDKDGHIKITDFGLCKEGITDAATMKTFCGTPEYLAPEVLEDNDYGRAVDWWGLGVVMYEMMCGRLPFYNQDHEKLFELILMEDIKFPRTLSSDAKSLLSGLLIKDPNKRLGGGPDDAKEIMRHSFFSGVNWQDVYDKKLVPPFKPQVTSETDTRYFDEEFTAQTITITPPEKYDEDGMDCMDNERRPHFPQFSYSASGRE
In short: as §1

ULK2(h) = target: T2, ULK2(h) (Homo sapiens, UniProt Q8IYT8)
T2 sequence (Q8IYT8 1-1036): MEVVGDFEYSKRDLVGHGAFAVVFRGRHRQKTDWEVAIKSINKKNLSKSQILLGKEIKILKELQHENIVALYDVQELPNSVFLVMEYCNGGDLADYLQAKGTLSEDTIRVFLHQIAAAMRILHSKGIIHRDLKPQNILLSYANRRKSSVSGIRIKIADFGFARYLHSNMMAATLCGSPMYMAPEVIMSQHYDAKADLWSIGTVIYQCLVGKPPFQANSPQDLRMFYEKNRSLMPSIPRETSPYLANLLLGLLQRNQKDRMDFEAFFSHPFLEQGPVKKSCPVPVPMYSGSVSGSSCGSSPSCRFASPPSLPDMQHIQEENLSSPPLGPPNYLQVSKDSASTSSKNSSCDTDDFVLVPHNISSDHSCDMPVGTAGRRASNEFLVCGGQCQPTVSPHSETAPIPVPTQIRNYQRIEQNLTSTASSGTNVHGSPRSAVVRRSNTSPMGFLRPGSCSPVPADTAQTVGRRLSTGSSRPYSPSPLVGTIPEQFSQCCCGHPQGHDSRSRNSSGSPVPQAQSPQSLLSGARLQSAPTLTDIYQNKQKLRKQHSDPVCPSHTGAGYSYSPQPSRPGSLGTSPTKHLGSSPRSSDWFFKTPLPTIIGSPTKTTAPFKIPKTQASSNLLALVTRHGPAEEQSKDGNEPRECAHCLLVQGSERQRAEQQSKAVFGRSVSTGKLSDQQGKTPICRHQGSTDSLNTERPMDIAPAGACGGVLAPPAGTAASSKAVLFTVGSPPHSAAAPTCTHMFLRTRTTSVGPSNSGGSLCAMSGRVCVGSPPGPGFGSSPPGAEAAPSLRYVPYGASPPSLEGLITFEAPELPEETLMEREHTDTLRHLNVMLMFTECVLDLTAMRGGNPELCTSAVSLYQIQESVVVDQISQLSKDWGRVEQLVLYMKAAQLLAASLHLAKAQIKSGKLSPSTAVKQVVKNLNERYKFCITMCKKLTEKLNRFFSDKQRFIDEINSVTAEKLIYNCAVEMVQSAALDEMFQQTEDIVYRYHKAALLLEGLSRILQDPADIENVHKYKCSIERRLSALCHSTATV
In short: as §1

CHK2(h) = target: T3, CHK2(h) (Homo sapiens, UniProt O96017)
T3 construct: gene CHEK2
T3 sequence (O96017 whole entry): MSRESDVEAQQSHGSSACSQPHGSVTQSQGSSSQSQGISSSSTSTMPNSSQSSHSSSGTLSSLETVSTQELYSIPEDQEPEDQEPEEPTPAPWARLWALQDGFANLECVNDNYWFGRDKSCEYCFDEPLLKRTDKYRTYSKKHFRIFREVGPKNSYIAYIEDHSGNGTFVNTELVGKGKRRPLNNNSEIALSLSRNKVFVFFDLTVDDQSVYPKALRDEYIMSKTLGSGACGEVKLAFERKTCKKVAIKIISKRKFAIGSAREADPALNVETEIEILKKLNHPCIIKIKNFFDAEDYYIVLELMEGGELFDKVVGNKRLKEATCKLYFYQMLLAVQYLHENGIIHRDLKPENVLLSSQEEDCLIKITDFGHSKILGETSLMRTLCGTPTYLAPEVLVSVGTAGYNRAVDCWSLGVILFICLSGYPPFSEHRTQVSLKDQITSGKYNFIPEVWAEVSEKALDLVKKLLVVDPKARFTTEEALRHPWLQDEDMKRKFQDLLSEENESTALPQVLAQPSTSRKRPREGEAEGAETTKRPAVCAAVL
In short: as §1

[1] = target: T4, PI3 Kinase (p110a(E542K)/p85a)(h) (Homo sapiens, UniProt P42336, E542K)
T4 construct: gene PIK3CA
T4 sequence (P42336 whole entry E542K): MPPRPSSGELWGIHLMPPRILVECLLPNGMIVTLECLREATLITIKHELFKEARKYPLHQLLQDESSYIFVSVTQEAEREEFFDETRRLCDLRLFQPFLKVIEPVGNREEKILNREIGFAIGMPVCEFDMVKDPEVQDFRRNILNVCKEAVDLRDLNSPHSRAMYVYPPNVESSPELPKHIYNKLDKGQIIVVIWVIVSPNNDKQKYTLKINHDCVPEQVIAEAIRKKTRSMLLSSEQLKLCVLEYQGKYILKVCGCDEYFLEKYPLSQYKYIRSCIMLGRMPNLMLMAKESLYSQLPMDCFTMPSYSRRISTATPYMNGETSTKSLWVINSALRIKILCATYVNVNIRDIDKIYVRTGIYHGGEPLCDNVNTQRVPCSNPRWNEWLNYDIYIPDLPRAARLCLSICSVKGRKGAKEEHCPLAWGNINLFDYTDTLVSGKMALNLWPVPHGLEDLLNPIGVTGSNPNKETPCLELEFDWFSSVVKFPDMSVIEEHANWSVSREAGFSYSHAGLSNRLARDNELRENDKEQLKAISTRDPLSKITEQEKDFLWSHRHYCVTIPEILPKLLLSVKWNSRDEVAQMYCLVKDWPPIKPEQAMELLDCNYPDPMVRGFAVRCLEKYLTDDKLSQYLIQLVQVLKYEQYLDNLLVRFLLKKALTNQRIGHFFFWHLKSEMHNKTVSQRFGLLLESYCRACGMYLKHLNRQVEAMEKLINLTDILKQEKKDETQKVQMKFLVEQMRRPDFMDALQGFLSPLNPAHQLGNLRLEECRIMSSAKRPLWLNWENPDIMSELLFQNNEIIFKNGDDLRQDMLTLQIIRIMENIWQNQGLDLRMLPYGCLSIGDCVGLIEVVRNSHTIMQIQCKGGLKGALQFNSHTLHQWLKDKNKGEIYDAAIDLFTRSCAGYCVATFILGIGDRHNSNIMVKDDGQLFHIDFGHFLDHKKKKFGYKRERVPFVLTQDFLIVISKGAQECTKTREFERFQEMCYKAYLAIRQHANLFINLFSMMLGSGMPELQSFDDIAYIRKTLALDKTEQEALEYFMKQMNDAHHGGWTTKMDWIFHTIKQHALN
T4 sequence (P27986 whole entry partner): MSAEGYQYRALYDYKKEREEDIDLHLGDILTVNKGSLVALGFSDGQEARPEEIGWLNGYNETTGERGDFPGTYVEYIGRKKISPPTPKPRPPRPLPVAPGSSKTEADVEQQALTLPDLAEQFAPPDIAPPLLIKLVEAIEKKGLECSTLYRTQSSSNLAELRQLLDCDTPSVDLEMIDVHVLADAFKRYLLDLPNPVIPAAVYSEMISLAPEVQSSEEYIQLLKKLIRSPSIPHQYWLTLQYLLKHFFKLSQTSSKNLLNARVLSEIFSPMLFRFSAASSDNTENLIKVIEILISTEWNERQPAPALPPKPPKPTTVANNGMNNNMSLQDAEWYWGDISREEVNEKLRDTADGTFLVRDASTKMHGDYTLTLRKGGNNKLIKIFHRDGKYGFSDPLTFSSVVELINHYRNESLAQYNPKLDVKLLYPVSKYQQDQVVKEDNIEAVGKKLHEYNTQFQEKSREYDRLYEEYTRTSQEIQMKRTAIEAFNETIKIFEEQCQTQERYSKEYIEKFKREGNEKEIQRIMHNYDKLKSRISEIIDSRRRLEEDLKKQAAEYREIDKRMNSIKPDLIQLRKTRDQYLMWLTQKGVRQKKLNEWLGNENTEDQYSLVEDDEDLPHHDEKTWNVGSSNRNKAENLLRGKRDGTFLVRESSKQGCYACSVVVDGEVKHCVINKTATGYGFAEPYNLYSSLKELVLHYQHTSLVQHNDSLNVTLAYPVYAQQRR
In short: as §1

GRK3(h) = target: T5, GRK3(h) (Homo sapiens, UniProt P35626)
T5 sequence (P35626 1-688): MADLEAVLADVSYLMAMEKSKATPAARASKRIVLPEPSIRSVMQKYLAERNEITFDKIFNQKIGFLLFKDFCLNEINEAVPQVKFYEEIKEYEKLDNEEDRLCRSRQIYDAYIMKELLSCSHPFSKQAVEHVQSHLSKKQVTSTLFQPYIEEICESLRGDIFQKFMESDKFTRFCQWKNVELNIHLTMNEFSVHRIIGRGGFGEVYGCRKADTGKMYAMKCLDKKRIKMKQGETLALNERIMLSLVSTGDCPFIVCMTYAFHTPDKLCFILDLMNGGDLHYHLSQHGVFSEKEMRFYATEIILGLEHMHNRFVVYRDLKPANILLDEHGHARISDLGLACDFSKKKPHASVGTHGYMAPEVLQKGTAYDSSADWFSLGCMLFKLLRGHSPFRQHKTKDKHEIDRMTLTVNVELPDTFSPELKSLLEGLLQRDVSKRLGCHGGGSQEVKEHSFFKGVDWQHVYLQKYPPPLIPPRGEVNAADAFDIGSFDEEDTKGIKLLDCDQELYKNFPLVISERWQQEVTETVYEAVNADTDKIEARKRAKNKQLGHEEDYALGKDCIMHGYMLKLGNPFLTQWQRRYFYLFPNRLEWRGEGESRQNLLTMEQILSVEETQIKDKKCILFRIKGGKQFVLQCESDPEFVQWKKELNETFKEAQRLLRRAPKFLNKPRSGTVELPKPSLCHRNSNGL
In short: as §1

CDKL1(h) = CDKL1(h) (Homo sapiens, UniProt Q00532)
Sequence of CDKL1(h) (Q00532 whole entry): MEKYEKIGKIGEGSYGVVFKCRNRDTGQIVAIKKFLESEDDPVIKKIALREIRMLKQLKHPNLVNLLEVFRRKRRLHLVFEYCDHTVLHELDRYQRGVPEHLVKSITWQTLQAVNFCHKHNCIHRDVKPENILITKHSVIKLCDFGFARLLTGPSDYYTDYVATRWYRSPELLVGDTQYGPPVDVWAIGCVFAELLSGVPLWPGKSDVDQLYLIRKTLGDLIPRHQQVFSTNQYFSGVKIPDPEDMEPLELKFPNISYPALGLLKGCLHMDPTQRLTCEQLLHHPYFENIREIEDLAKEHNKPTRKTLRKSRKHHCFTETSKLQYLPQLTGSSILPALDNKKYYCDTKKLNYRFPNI
In short: as §1

[2] = read-out: Residual activity (%) Spautin-1 5aa
[3] = read-out: Residual activity (%) 5as
[4] = read-out: Residual activity (%) 5at
[5] = read-out: Residual activity (%) 5ay

Sequence of Wee1(h) (P30291 whole entry): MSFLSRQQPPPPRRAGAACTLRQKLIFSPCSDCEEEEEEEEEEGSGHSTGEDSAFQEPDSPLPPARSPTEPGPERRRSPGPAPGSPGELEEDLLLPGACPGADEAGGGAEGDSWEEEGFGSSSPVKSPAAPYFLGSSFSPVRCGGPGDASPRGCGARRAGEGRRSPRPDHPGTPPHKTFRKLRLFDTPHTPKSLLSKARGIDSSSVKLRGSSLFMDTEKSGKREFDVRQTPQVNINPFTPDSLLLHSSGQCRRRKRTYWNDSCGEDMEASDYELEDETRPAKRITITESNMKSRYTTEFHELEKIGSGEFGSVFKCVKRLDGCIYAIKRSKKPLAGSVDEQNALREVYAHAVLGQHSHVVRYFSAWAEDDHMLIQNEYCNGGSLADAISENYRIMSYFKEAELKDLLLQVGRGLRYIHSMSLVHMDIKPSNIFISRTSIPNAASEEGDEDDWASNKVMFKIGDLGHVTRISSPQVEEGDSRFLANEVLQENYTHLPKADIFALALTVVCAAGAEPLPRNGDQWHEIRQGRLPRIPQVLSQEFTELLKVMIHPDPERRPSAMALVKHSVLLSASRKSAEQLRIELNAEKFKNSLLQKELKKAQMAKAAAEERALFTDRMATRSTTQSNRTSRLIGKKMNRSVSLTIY

Fc1ccc(CNc2ncnc3ccc(F)cc23)cc1 [5aa, 6-Fluoro-N-(4-fluorobenzyl)-4-Quinazolinamine]
remaining activity at 10 µM (Wee1(h); [2]): 109% | remaining activity at 10 µM (PKBγ(h); [2]): 101% | remaining activity at 10 µM (ULK2(h); [2]): 101% | remaining activity at 10 µM (CHK2(h); [2]): 67% | remaining activity at 10 µM [1, 2]: 94% | remaining activity at 10 µM (GRK3(h); [2]): 95% | remaining activity at 10 µM (CDKL1(h); [2]): 94%

Fc1ccc(CCNc2ncnc3ccc(F)cc23)cc1 [5as, 6-Fluoro-N-[2-(4-Fluorophenyl)Ethyl]-4-Quinazolinamine]
remaining activity at 10 µM (Wee1(h); [3]): 114% | remaining activity at 10 µM (PKBγ(h); [3]): 102% | remaining activity at 10 µM (ULK2(h); [3]): 93% | remaining activity at 10 µM (CHK2(h); [3]): 73% | remaining activity at 10 µM [1, 3]: 91% | remaining activity at 10 µM (GRK3(h); [3]): 92% | remaining activity at 10 µM (CDKL1(h); [3]): 111%

Fc1ccc2ncnc(NCCc3ccc(Cl)cc3)c2c1 [5at, N-[2-(4-Chlorophenyl)Ethyl]-6-Fluoro-4-Quinazolinamine]
remaining activity at 10 µM (Wee1(h); [4]): 89% | remaining activity at 10 µM (PKBγ(h); [4]): 105% | remaining activity at 10 µM (ULK2(h); [4]): 94% | remaining activity at 10 µM (CHK2(h); [4]): 75% | remaining activity at 10 µM [1, 4]: 93% | remaining activity at 10 µM (GRK3(h); [4]): 97% | remaining activity at 10 µM (CDKL1(h); [4]): 111%

COc1ccc2ncnc(Nc3cccc(F)c3)c2c1 [5ay, N-(3-Fluorophenyl)-6-Methoxy-4-Quinazolinamine]
remaining activity at 10 µM (Wee1(h); [5]): 102% | remaining activity at 10 µM (PKBγ(h); [5]): 89% | remaining activity at 10 µM (ULK2(h); [5]): 97% | remaining activity at 10 µM (CHK2(h); [5]): 67% | remaining activity at 10 µM [1, 5]: 88% | remaining activity at 10 µM (GRK3(h); [5]): 93% | remaining activity at 10 µM (CDKL1(h); [5]): 119%

— PMC7827406, “Structure–Activity Relationship (SAR) Study of Spautin-1 to Entail the Discovery of Novel NEK4 Inhibitors” (International Journal of Molecular Sciences, 2021)
